How the values were obtained:
Experiment in all cases: Histone peptide microarray
Format in all cases: binding, human
CHD5 (PPCC) = details: for Array Heatmap signal, CHD5 (PPCC): GST-tagged CHD5 (PPCC = Dual PHD + Dual Chromodomain), histone peptide array, arrays performed twice, n of 4
Method in brief: (§1)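 Readout is array binding signal, reported as the mean and standard deviation over four replicates. Each purified GST-fused PHD domain was incubated at 0.5 μM with a library of 293 modified histone peptides.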

PHRF1 (RP) = details: for Array Heatmap signal, PHRF1 (RP): GST-tagged PHRF1 (RP), histone peptide array, arrays performed twice, n of 4
Method in brief: as §1

ING4 = details: for Array Heatmap signal, ING4: GST-tagged ING4, histone peptide array, arrays performed twice, n of 4
Method in brief: as §1

ING5 = details: for Array Heatmap signal, ING5: GST-tagged ING5, histone peptide array, arrays performed twice, n of 4
Method in brief: as §1

TRIM66 (PB) = details: for Array Heatmap signal, TRIM66 (PB): GST-tagged TRIM66 (PB = PHD + Bromodomain), histone peptide array, arrays performed twice, n of 4
Method in brief: as §1

ING2 = details: for Array Heatmap signal, ING2: GST-tagged ING2, histone peptide array, arrays performed twice, n of 4
Method in brief: as §1

KDM4C (TTP) = details: for Array Heatmap signal, KDM4C (TTP): GST-tagged KDM4C (TTP = Tandem Tudor domain + PHD), histone peptide array, arrays performed twice, n of 4
Method in brief: as §1

KDM5B (3) = details: for Array Heatmap signal, KDM5B (3): GST-tagged KDM5B (3), histone peptide array, arrays performed twice, n of 4
Method in brief: as §1

DPF2 (PPC2W2) = details: for Array Heatmap signal, DPF2 (PPC2W2): GST-tagged DPF2 (PPC2W2 = Dual PHD + C2W2-type Zn-finger), histone peptide array, arrays performed twice, n of 4
Method in brief: as §1

KDM5B (1) = details: for Array Heatmap signal, KDM5B (1): GST-tagged KDM5B (1), histone peptide array, arrays performed twice, n of 4
Method in brief: as §1

AIRE (PP) = details: for Array Heatmap signal, AIRE (PP): GST-tagged AIRE (PP), histone peptide array, arrays performed twice, n of 4
Method in brief: as §1

KDM5A (3) = details: for Array Heatmap signal, KDM5A (3): GST-tagged KDM5A (3), histone peptide array, arrays performed twice, n of 4
Method in brief: as §1

PHF13 = details: for Array Heatmap signal, PHF13: GST-tagged PHF13, histone peptide array, arrays performed twice, n of 4
Method in brief: as §1

ING3 = details: for Array Heatmap signal, ING3: GST-tagged ING3, histone peptide array, arrays performed twice, n of 4
Method in brief: as §1

SP140L = details: for Array Heatmap signal, SP140L: GST-tagged SP140L, histone peptide array, arrays performed twice, n of 4
Method in brief: as §1

PHF2 = details: for Array Heatmap signal, PHF2: GST-tagged PHF2, histone peptide array, arrays performed twice, n of 4
Method in brief: as §1

TAF3 = details: for Array Heatmap signal, TAF3: GST-tagged TAF3, histone peptide array, arrays performed twice, n of 4
Method in brief: as §1

RAG2 = details: for Array Heatmap signal, RAG2: GST-tagged RAG2, histone peptide array, arrays performed twice, n of 4
Method in brief: as §1

MORC3 (CW) = details: for Array Heatmap signal, MORC3 (CW): GST-tagged MORC3 (CW = CW-type Zn-finger), histone peptide array, arrays performed twice, n of 4
Method in brief: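 A peptide microarray holding 293 synthetic histone peptides with individual or combinatorial modifications was probed with each GST-PHD protein at 0.5 μM. Values represent mean intensity (±SD) from four replicates.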

KDM7A = details: for Array Heatmap signal, KDM7A: GST-tagged KDM7A, histone peptide array, arrays performed twice, n of 4
Method in brief: as §1

PHF23 = details: for Array Heatmap signal, PHF23: GST-tagged PHF23, histone peptide array, arrays performed twice, n of 4
Method in brief: as §1

MLL5 = details: for Array Heatmap signal, MLL5: GST-tagged MLL5, histone peptide array, arrays performed twice, n of 4
Method in brief: as §1

DIDO1 = details: for Array Heatmap signal, DIDO1: GST-tagged DIDO1, histone peptide array, arrays performed twice, n of 4
Method in brief: as §1

CHD4 (PPCC) = details: for Array Heatmap signal, CHD4 (PPCC): GST-tagged CHD4 (PPCC = Dual PHD + Dual Chromodomain), histone peptide array, arrays performed twice, n of 4
Method in brief: as §1

PHF8 = details: for Array Heatmap signal, PHF8: GST-tagged PHF8, histone peptide array, arrays performed twice, n of 4
Method in brief: as §1

BPTF (PB) = details: for Array Heatmap signal, BPTF (PB): GST-tagged BPTF (PB = PHD + Bromodomain), histone peptide array, arrays performed twice, n of 4
Method in brief: as §1

KDM5A (1) = details: for Array Heatmap signal, KDM5A (1): GST-tagged KDM5A (1), histone peptide array, arrays performed twice, n of 4
Method in brief: as §1

ING1 = details: for Array Heatmap signal, ING1: GST-tagged ING1, histone peptide array, arrays performed twice, n of 4
Method in brief: as §1

CHD5 (PCC) = details: for Array Heatmap signal, CHD5 (PCC): GST-tagged CHD5 (PCC = PHD + Dual Chromodomain), histone peptide array, arrays performed twice, n of 4
Method in brief: as §1

BAZ2B = details: for Array Heatmap signal, BAZ2B: GST-tagged BAZ2B, histone peptide array, arrays performed twice, n of 4
Method in brief: as §1

PHF21A = details: for Array Heatmap signal, PHF21A: GST-tagged PHF21A, histone peptide array, arrays performed twice, n of 4
Method in brief: as §1

## H4K5ac + K12ac: H4 1-23
CHD5 (PPCC)
  Array Heatmap signal, CHD5 (PPCC): 0.532
PHRF1 (RP)
  Array Heatmap signal, PHRF1 (RP): 0.4375
ING4
  Array Heatmap signal, ING4: 0.4639
ING5
  Array Heatmap signal, ING5: 0.3605
TRIM66 (PB)
  Array Heatmap signal, TRIM66 (PB): 0.6577
ING2
  Array Heatmap signal, ING2: 0.648
KDM4C (TTP)
  Array Heatmap signal, KDM4C (TTP): 0.4758
KDM5B (3)
  Array Heatmap signal, KDM5B (3): 0.4813
DPF2 (PPC2W2)
  Array Heatmap signal, DPF2 (PPC2W2): 0.7316
KDM5B (1)
  Array Heatmap signal, KDM5B (1): 0.6768
AIRE (PP)
  Array Heatmap signal, AIRE (PP): 0.3771
KDM5A (3)
  Array Heatmap signal, KDM5A (3): 0.5097
PHF13
  Array Heatmap signal, PHF13: 0.6317
ING3
  Array Heatmap signal, ING3: 0.4957
SP140L
  Array Heatmap signal, SP140L: 0.3768
PHF2
  Array Heatmap signal, PHF2: 0.5746
TAF3
  Array Heatmap signal, TAF3: 0.366
RAG2
  Array Heatmap signal, RAG2: 0.3116
MORC3 (CW)
  Array Heatmap signal, MORC3 (CW): 0.4134
KDM7A
  Array Heatmap signal, KDM7A: 0.3306
PHF23
  Array Heatmap signal, PHF23: 0.5561
MLL5
  Array Heatmap signal, MLL5: 0.6047
DIDO1
  Array Heatmap signal, DIDO1: 0.8034
CHD4 (PPCC)
  Array Heatmap signal, CHD4 (PPCC): 0.585
PHF8
  Array Heatmap signal, PHF8: 0.3854
BPTF (PB)
  Array Heatmap signal, BPTF (PB): 0.414
KDM5A (1)
  Array Heatmap signal, KDM5A (1): 0.4472
ING1
  Array Heatmap signal, ING1: 0.5734
CHD5 (PCC)
  Array Heatmap signal, CHD5 (PCC): 0.8553
BAZ2B
  Array Heatmap signal, BAZ2B: 0.4409
PHF21A
  Array Heatmap signal, PHF21A: 0.4826

## H4K5ac: H4 1-23 [Peptide H4K5ac]
CHD5 (PPCC)
  Array Heatmap signal, CHD5 (PPCC): 0.5269
PHRF1 (RP)
  Array Heatmap signal, PHRF1 (RP): 0.4272
ING4
  Array Heatmap signal, ING4: 0.4388
ING5
  Array Heatmap signal, ING5: 0.3447
TRIM66 (PB)
  Array Heatmap signal, TRIM66 (PB): 0.6888
ING2
  Array Heatmap signal, ING2: 0.5879
KDM4C (TTP)
  Array Heatmap signal, KDM4C (TTP): 0.4448
KDM5B (3)
  Array Heatmap signal, KDM5B (3): 0.4665
DPF2 (PPC2W2)
  Array Heatmap signal, DPF2 (PPC2W2): 0.6533
KDM5B (1)
  Array Heatmap signal, KDM5B (1): 0.6329
AIRE (PP)
  Array Heatmap signal, AIRE (PP): 0.3943
KDM5A (3)
  Array Heatmap signal, KDM5A (3): 0.423
PHF13
  Array Heatmap signal, PHF13: 0.6012
ING3
  Array Heatmap signal, ING3: 0.4744
SP140L
  Array Heatmap signal, SP140L: 0.3459
PHF2
  Array Heatmap signal, PHF2: 0.5353
TAF3
  Array Heatmap signal, TAF3: 0.3079
RAG2
  Array Heatmap signal, RAG2: 0.2578
MORC3 (CW)
  Array Heatmap signal, MORC3 (CW): 0.3392
KDM7A
  Array Heatmap signal, KDM7A: 0.3174
PHF23
  Array Heatmap signal, PHF23: 0.5421
MLL5
  Array Heatmap signal, MLL5: 0.5676
DIDO1
  Array Heatmap signal, DIDO1: 0.6701
CHD4 (PPCC)
  Array Heatmap signal, CHD4 (PPCC): 0.5634
PHF8
  Array Heatmap signal, PHF8: 0.3344
BPTF (PB)
  Array Heatmap signal, BPTF (PB): 0.3451
KDM5A (1)
  Array Heatmap signal, KDM5A (1): 0.4372
ING1
  Array Heatmap signal, ING1: 0.5387
CHD5 (PCC)
  Array Heatmap signal, CHD5 (PCC): 0.7301
BAZ2B
  Array Heatmap signal, BAZ2B: 0.4414
PHF21A
  Array Heatmap signal, PHF21A: 0.436

## H4K5butK8butK12but: H4 1-23
CHD5 (PPCC); CHD5 (PPCC), sheet "Array Heatmap", each array performed twice, total n = 4
  Array Heatmap value (peptide array signal): 0.5134
PHRF1 (RP); PHRF1 (RP), sheet "Array Heatmap", each array performed twice, total n = 4
  Array Heatmap value (peptide array signal): 0.4335
ING4; ING4, sheet "Array Heatmap", each array performed twice, total n = 4
  Array Heatmap value (peptide array signal): 0.4352
ING5; ING5, sheet "Array Heatmap", each array performed twice, total n = 4
  Array Heatmap value (peptide array signal): 0.3275
TRIM66 (PB); TRIM66 (PB), sheet "Array Heatmap", each array performed twice, total n = 4
  Array Heatmap value (peptide array signal): 0.5547
ING2; ING2, sheet "Array Heatmap", each array performed twice, total n = 4
  Array Heatmap value (peptide array signal): 0.5892
KDM4C (TTP); KDM4C (TTP), sheet "Array Heatmap", each array performed twice, total n = 4
  Array Heatmap value (peptide array signal): 0.4273
KDM5B (3); KDM5B (3), sheet "Array Heatmap", each array performed twice, total n = 4
  Array Heatmap value (peptide array signal): 0.4196
DPF2 (PPC2W2); DPF2 (PPC2W2), sheet "Array Heatmap", each array performed twice, total n = 4
  Array Heatmap value (peptide array signal): 0.6505
KDM5B (1); KDM5B (1), sheet "Array Heatmap", each array performed twice, total n = 4
  Array Heatmap value (peptide array signal): 0.5776
AIRE (PP); AIRE (PP), sheet "Array Heatmap", each array performed twice, total n = 4
  Array Heatmap value (peptide array signal): 0.3828
KDM5A (3); KDM5A (3), sheet "Array Heatmap", each array performed twice, total n = 4
  Array Heatmap value (peptide array signal): 0.4238
PHF13; PHF13, sheet "Array Heatmap", each array performed twice, total n = 4
  Array Heatmap value (peptide array signal): 0.5714
ING3; ING3, sheet "Array Heatmap", each array performed twice, total n = 4
  Array Heatmap value (peptide array signal): 0.4441
SP140L; SP140L, sheet "Array Heatmap", each array performed twice, total n = 4
  Array Heatmap value (peptide array signal): 0.3551
PHF2; PHF2, sheet "Array Heatmap", each array performed twice, total n = 4
  Array Heatmap value (peptide array signal): 0.5429
TAF3; TAF3, sheet "Array Heatmap", each array performed twice, total n = 4
  Array Heatmap value (peptide array signal): 0.2569
RAG2; RAG2, sheet "Array Heatmap", each array performed twice, total n = 4
  Array Heatmap value (peptide array signal): 0.2246
MORC3 (CW); MORC3 (CW), sheet "Array Heatmap", each array performed twice, total n = 4
  Array Heatmap value (peptide array signal): 0.3355
KDM7A; KDM7A, sheet "Array Heatmap", each array performed twice, total n = 4
  Array Heatmap value (peptide array signal): 0.3032
PHF23; PHF23, sheet "Array Heatmap", each array performed twice, total n = 4
  Array Heatmap value (peptide array signal): 0.5206
MLL5; MLL5, sheet "Array Heatmap", each array performed twice, total n = 4
  Array Heatmap value (peptide array signal): 0.5293
DIDO1; DIDO1, sheet "Array Heatmap", each array performed twice, total n = 4
  Array Heatmap value (peptide array signal): 0.6712
CHD4 (PPCC); CHD4 (PPCC), sheet "Array Heatmap", each array performed twice, total n = 4
  Array Heatmap value (peptide array signal): 0.5302
PHF8; PHF8, sheet "Array Heatmap", each array performed twice, total n = 4
  Array Heatmap value (peptide array signal): 0.3282
BPTF (PB); BPTF (PB), sheet "Array Heatmap", each array performed twice, total n = 4
  Array Heatmap value (peptide array signal): 0.3272
KDM5A (1); KDM5A (1), sheet "Array Heatmap", each array performed twice, total n = 4
  Array Heatmap value (peptide array signal): 0.419
ING1; ING1, sheet "Array Heatmap", each array performed twice, total n = 4
  Array Heatmap value (peptide array signal): 0.5532
CHD5 (PCC); CHD5 (PCC), sheet "Array Heatmap", each array performed twice, total n = 4
  Array Heatmap value (peptide array signal): 0.661
BAZ2B; BAZ2B, sheet "Array Heatmap", each array performed twice, total n = 4
  Array Heatmap value (peptide array signal): 0.414
PHF21A; PHF21A, sheet "Array Heatmap", each array performed twice, total n = 4
  Array Heatmap value (peptide array signal): 0.3738
